Experimental data: ChEMBL document CHEMBL1201862, “PubChem BioAssay data set” (2004)
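Briefly, cells in 96-well plates were exposed to five compound concentrations for 48 h, and endpoints were estimated by linear interpolation. GI50: concentration for 50% inhibition of growth.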 Activity calls are given as the source filed them. Rule as the data show it: active = GI50 up to about 1.1 µM and inactive = higher.

Columns and labels:
Assay in all cases: inhibition of tumour cell growth, NCI panel, 48 h
MDA-MB-435 = test system: MDA-MB-435
SNB-19 = test system: SNB-19
NCI-H23 = test system: NCI-H23
SN12C = test system: SN12C
M14 = test system: M14
U-251 = test system: U-251
SK-MEL-2 = test system: SK-MEL-2
Malme-3M = test system: Malme-3M
NCI-H522 = test system: NCI-H522
NCI-H226 = test system: NCI-H226
ACHN = test system: ACHN
TK-10 = test system: TK-10
K562 = test system: K562
UO-31 = test system: UO-31
SF-539 = test system: SF-539
RXF 393 = test system: RXF 393
NCI-H460 = test system: NCI-H460
PC-3 = test system: PC-3
MCF7 = test system: MCF7
LOX IMVI = test system: LOX IMVI

| SMILES | GI50 (MDA-MB-435) | GI50 (SNB-19) | GI50 (NCI-H23) | GI50 (SN12C) | GI50 (M14) | GI50 (U-251) | GI50 (SK-MEL-2) | GI50 (Malme-3M) | GI50 (NCI-H522) | GI50 (NCI-H226) | GI50 (ACHN) | GI50 (TK-10) | GI50 (K562) | GI50 (UO-31) | GI50 (SF-539) | GI50 (RXF 393) | GI50 (NCI-H460) | GI50 (PC-3) | GI50 (MCF7) | GI50 (LOX IMVI) |
| --- | --- | --- | --- | --- | --- | --- | --- | --- | --- | --- | --- | --- | --- | --- | --- | --- | --- | --- | --- | --- |
| Nc1nc(SCC(=O)O)nc(O)c1N | 32.3 µM (inactive) | > 100 µM (inactive) | > 100 µM (inactive) | 13.3 µM (inactive) | > 100 µM (inactive) | > 100 µM (inactive) | > 100 µM (inactive) | > 100 µM (inactive) | > 100 µM (inactive) | > 100 µM (inactive) | > 100 µM (inactive) | > 100 µM (inactive) | 13.6 µM (inactive) | > 100 µM (inactive) | > 100 µM (inactive) | > 100 µM (inactive) | > 100 µM (inactive) | > 100 µM (inactive) | > 100 µM (inactive) | 20.9 µM (inactive) |
| C=C1CC2(C[C@@H](c3ccccc3)O[C@@H](c3ccccc3)C2)OC1=O (stereo not given in full) | 2.99 µM (inactive) | 15.2 µM (inactive) | 2.64 µM (inactive) | 3.01 µM (inactive) | 1.77 µM (inactive) | 15.4 µM (inactive) | 3.98 µM (inactive) | 1.89 µM (inactive) | 1.48 µM (inactive) | 16 µM (inactive) | 2.88 µM (inactive) | 1.8 µM (inactive) | 2.22 µM (inactive) | 6.24 µM (inactive) | 1.92 µM (inactive) | 1.94 µM (inactive) | 10.2 µM (inactive) | 3.5 µM (inactive) | 2.13 µM (inactive) | 1.25 µM (inactive) |
| CCOC(=O)Oc1ccc2c(c1)c(=O)c1c(NCCN(CC)CC)ccc3nnn2c31 | 3.67 µM (inactive) | 1.21 µM (inactive) | 2.48 µM (inactive) | 0.809 µM (active) | 5.2 µM (inactive) | 1.73 µM (inactive) | 13.2 µM (inactive) | 2.78 µM (inactive) | 0.69 µM (active) | 0.711 µM (active) | 0.406 µM (active) | 3.19 µM (inactive) | 0.948 µM (active) | 0.165 µM (active) | 0.748 µM (active) | 6.08 µM (inactive) | < 0.0209 µM (active) | 2.19 µM (inactive) | 0.392 µM (active) | 1.18 µM (inactive) |
| CCCCCCCC(=O)OC[n+]1cccc(-c2c(COC(=O)NC(C)C)c(COC(=O)NC(C)C)c3n2CCC3)c1 | > 100 µM (inactive) | > 100 µM (inactive) | 61.7 µM (inactive) | 48 µM (inactive) | 98.2 µM (inactive) | > 72.8 µM (inactive) | > 100 µM (inactive) | > 100 µM (inactive) | 40.4 µM (inactive) | 97.5 µM (inactive) | 34 µM (inactive) | > 100 µM (inactive) | 83.6 µM (inactive) | 62.8 µM (inactive) | 33.7 µM (inactive) | 44.2 µM (inactive) | 46.1 µM (inactive) | > 88.3 µM (inactive) | 45.6 µM (inactive) | 60.3 µM (inactive) |
| NC(=O)c1csc(C2OC(CO)C(O)C2O)n1 (stereo not given) | 57.9 µM (inactive) | 38.3 µM (inactive) | 60.1 µM (inactive) | 379 µM (inactive) | 6.84 µM (inactive) | 8.39 µM (inactive) | 2340 µM (inactive) | 1640 µM (inactive) | 50.1 µM (inactive) | 723 µM (inactive) | 44.6 µM (inactive) | 237 µM (inactive) | 4.26 µM (inactive) | 53.2 µM (inactive) | 20.3 µM (inactive) | 126 µM (inactive) | 225 µM (inactive) | 4.9 µM (inactive) | 31.4 µM (inactive) | 267 µM (inactive) |
| CO[C@@H]1C[C@H](OC(N)=O)[C@@H]2C=C[C@@H]3/C=C(C)/C=C/[C@@H](C)[C@H](/C(C)=C/[C@@H](C)NC(C)=O)OC(=O)/C=C/C=C(C)\C=C\[C@]3(C)[C@@H]2C1 [SUPERSTOLIDE B] | < 0.005 µM (active) | 0.0306 µM (active) | < 0.005 µM (active) | < 0.005 µM (active) | < 0.005 µM (active) | < 0.005 µM (active) | 0.319 µM (active) | < 0.005 µM (active) | < 0.005 µM (active) | < 0.005 µM (active) | < 0.005 µM (active) | 0.0718 µM (active) | < 0.005 µM (active) | < 0.005 µM (active) | < 0.005 µM (active) | < 0.005 µM (active) | < 0.005 µM (active) | < 0.005 µM (active) | 0.00693 µM (active) | < 0.005 µM (active) |
